“Also recorded” adds a separate entry of the source. Square brackets hold non-standard residues; d marks the D form. Ends that are not written are not given here.

The values that follow come from US11447523B2, “Methods for reducing CD36 expression” (Cornell Research Foundation, Inc., priority 2005, dated 2022).

The subject of assay [1] is CD36. The assay is described as follows: CD36 immunostaining in isolated hearts after cold ischemic storage and warm reperfusion. Also noted: species or system guinea pig. To be noted: 1 nM SS-31 or 100 nM SS-20 in St. Thomas solution, 18 h at 4° C., 90 min reperfusion at 34° C. The protocol: Isolated guinea pig hearts were perfused with St. Thomas solution alone, or St. Thomas solution containing 1 nM SS-31 or 100 nM SS-20, for 3 min. and then stored in the same solution at 4° C. for 18 hours. After ischemic storage, hearts were reperfused with 34° C. Kreb-Henseleit solution for 90 min. Hearts freshly isolated from guinea pigs were used as controls.
The hearts were fixed in paraffin and sliced for immunostaining with an anti-CD36 rabbit polyclonal antibody. Two sections are shown for each treatment group. […] The “background” (FIGS. 12A and 12B) represents two sections from a normal non-ischemic heart that was not treated with the primary antibody. “Normal heart” (FIGS. 12C and 12D) represents two sections obtained from a non-ischemic heart.

Assay [2] has as its system isolated guinea pig hearts. As to the kind of experiment: Isolated hearts: lipid peroxidation, endothelial apoptosis and coronary flow after cold ischemia and warm reperfusion. The following applies: 1 nM SS-31 or 100 nM SS-20 in St. Thomas solution. The protocol:
Guinea pig hearts were perfused with a cardioplegic solution (St. Thomas solution) alone or St. Thomas solution containing either 1 nM SS-31 or 100 nM SS-20 for 3 min. and then subjected to 18 hours of cold ischemia (4° C.). The hearts were then reperfused with Krebs Henseleit buffer at 34° C. for 90 min. Immunohistochemical analysis of 4-hydroxynonenol (HNE)-modified proteins in paraffin sections from tissue slices were performed by incubation with an anti-HNE antibody (Santa Cruz) and a fluorescent secondary antibody. […] HNE staining was reduced in hearts stored in SS-31 (FIG. 13C) or SS-20 (FIG. 13D).
Guinea pig heats were perfused with a cardioplegic solution (St. Thomas solution) alone or St. Thomas solution containing either 1 nM SS-31 or 100 nM SS-20 for 3 min. and then subjected to 18 hours of cold ischemia (4° C.). The hearts were then reperfused with Krebs Henseleit buffer at 34° C. for 90 min. After deparaffinization, sections were incubated with deoxynucleotidyl transferase (Tdt) with digoxigenin-dNTP for 1 hour. The reaction was stopped with terminating buffer. A fluorescent anti-digoxigenin antibody was then applied.
A significant improvement of coronary blood flow after prolonged cold ischemic storage and warm reperfusion occurred (FIG. 15). Guinea pigs hearts were perfused with a cardioplegic solution (St. Thomas solution) alone or St. Thomas solution containing either 1 nM SS-31 (FIG. 15A) or 100 nM SS-20) (FIG. 15B) for 3 min. and then subjected to 18 hours of cold ischemia (4° C.). The hearts were then reperfused with Krebs Henseleit buffer at 34° C. for 90 min.

[3] abbreviates: 18 h at 4° C., 90 min reperfusion.

On to F[dR]FK-NH2 [SS-20], for which the “CD36 staining in stored hearts” value in assay [1] is “significantly reduced; also recorded: did not show the upregulation of CD36 expression”. In assay [2] (setting [3]), the “HNE staining (lipid peroxidation) in stored hearts” value is recorded as “reduced” and the “endothelial apoptosis in stored hearts” value is “Apoptotic cells were not observed”. For the same substance, in assay [2] (18 h at 4° C., 90 min reperfusion, pre-ischemic control = 100%), the “coronary flow restored, of pre-ischemic flow” value is “approximately 80%”. Moreover, the “coronary flow (in words)” value in assay [2] (18 h cold ischemia, warm reperfusion) is given as “preserves coronary flow”.
